From patent publication US20260098061A1, “EPHA2-BINDING PENDING PEPTIDE AND COMPOSITION COMPRISING SAME” (PeptiDream Inc., priority 2022, published 2026)
pKd: −log10 of the molar value. Numbered stars: 1 amine (or outer) side, 2 acyl side, 3 side chain; on linkers, the order of the positions; unused ones are H or OH. Bridge positions count the residues as written; N and C are the ends. Square brackets hold non-standard residues; d marks the D form. Side chains are listed from the residue outwards. Peptide text beside a SMILES is read from it. * marks the point of attachment. NH(1-deoxy-D-glucityl) = OC[C@@H](O)[C@@H](O)[C@H](O)[C@@H](O)CN*; Trp(1-Me,7-Cl) = Cn1cc(C[C@H](N)C(=O)O)c2cccc(Cl)c21; dPhe(3-CONH2) = NC(=O)c1cccc(C[C@@H](N)C(=O)O)c1; Piperazinyl(4-CH2COOH) = O=C(O)CN1CCN(*)CC1; Trp(1-Me) = Cn1cc(C[C@H](N)C(=O)O)c2ccccc21; NMe3Pal = CN[C@@H](Cc1cccnc1)C(=O)O; NMeF = CN[C@@H](Cc1ccccc1)C(=O)O; hArg = N=C(N)NCCCC[C@H](N)C(=O)O; hCit = NC(=O)NCCCC[C@H](N)C(=O)O; Gly(cBu) = N[C@H](C(=O)O)C1CCC1; NMeE = CN[C@@H](CCC(=O)O)C(=O)O; Aad = N[C@@H](CCCC(=O)O)C(=O)O; NMeN = CN[C@@H](CC(N)=O)C(=O)O; CO = O=C([*:1])[*:2]

Target: T1, Recombinant Human EphA2 Fc Protein (Homo sapiens, UniProt P29317)
T1 construct: purchased Elabscience
Assay: SPR interaction analysis (Biacore T200), kinetics of peptides against EphA2
Format: binding
Conditions: Recombinant Human EphA2 Fc Protein captured by Human Antibody Capture kit; single-cycle kinetics; 25° C.; HBS-P+ buffer with 1% DMSO
Outline: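 On a Biacore T200 at 25° C, Fc-tagged human EphA2 was captured via anti-human antibody; peptides ran as five serial dilutions in HBS-P+ pH 7.4 with 1% DMSO by single-cycle kinetics. Baseline-subtracted data fitted for ka and kd, from which KD was derived.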

pKd | Compound
> 9.00 | C[C@@H](O)[C@@H]1NC(=O)[C@H](Cc2cn(C)c3ccccc23)NC(=O)[C@H](CCCCNC(=O)N2CCN(CC(=O)O)CC2)NC(=O)[C@H](Cc2cn(C)c3c(Cl)cccc23)NC(=O)[C@H](CC(N)=O)N(C)C(=O)[C@H](CCCC(N)=O)NC(=O)[C@H](C2CCC2)NC(=O)[C@H](CC(N)=O)NC(=O)[C@H](Cc2ccccc2)N(C)C(=O)[C@@H](Cc2cccc(C(N)=O)c2)NC(=O)CSC[C@@H](C(N)=O)NC(=O)[C@H](CCCC(N)=O)NC1=O [PDC_EphA2-00019425, df3CON-MeF-N-Cbg-Hgn-MeN-W1Me7Cl-KCOpipzaa-W1Me-T-Hgn-C-NH2] ({CH2CO}-[dPhe(3-CONH2)][NMeF]N[Gly(cBu)][Aad](NH2)[NMeN][Trp(1-Me,7-Cl)]K([CO-Piperazinyl(4-CH2COOH)])[Trp(1-Me)]T[Aad](NH2)C-NH2; thioether N-12)
> 9.00 | C[C@@H](O)[C@@H]1NC(=O)[C@H](Cc2cn(C)c3ccccc23)NC(=O)[C@H](CCCCNC(N)=O)NC(=O)[C@H](Cc2cn(C)c3c(Cl)cccc23)NC(=O)[C@H](CCC(=O)O)N(C)C(=O)[C@H](CCCC(N)=O)NC(=O)[C@H](C2CCC2)NC(=O)[C@H](CC(N)=O)NC(=O)[C@H](Cc2ccccc2)N(C)C(=O)[C@@H](Cc2cccc(C(N)=O)c2)NC(=O)CSC[C@@H](C(N)=O)NC(=O)[C@H](CCCCNC(=N)N)NC1=O [PDC_EphA2-00019426, df3CON-MeF-N-Cbg-Hgn-MeN-W1Me7Cl-Hcit-W1Me-T-Hgn-C-NH2] ({CH2CO}-[dPhe(3-CONH2)][NMeF]N[Gly(cBu)][Aad](NH2)[NMeE][Trp(1-Me,7-Cl)][hCit][Trp(1-Me)]T[hArg]C-NH2; thioether N-12)
> 9.00 | C[C@@H](O)[C@@H]1NC(=O)[C@H](Cc2cn(C)c3ccccc23)NC(=O)[C@H](CCCCNC(N)=O)NC(=O)[C@H](Cc2cn(C)c3c(Cl)cccc23)NC(=O)[C@H](CC(N)=O)N(C)C(=O)[C@H](CCCC(N)=O)NC(=O)[C@H](C2CCC2)NC(=O)[C@H](CC(N)=O)NC(=O)[C@H](Cc2cccnc2)N(C)C(=O)[C@@H](Cc2cccc(C(N)=O)c2)NC(=O)CSC[C@@H](C(N)=O)NC(=O)[C@H](CCCNC(=N)N)NC1=O [PDC_EphA2-00019428, df3CON-Me3Py-N-Cbg-Hgn-MeN-W1Me7Cl-Hcit-W1Me-T-R-C-NH2] ({CH2CO}-[dPhe(3-CONH2)][NMe3Pal]N[Gly(cBu)][Aad](NH2)[NMeN][Trp(1-Me,7-Cl)][hCit][Trp(1-Me)]TRC-NH2; thioether N-12)
> 9.00 | C[C@@H](O)[C@@H]1NC(=O)[C@H](Cc2cn(C)c3ccccc23)NC(=O)[C@H](CCCCNC(N)=O)NC(=O)[C@H](Cc2cn(C)c3c(Cl)cccc23)NC(=O)[C@H](CC(N)=O)N(C)C(=O)[C@H](CCCC(N)=O)NC(=O)[C@H](C2CCC2)NC(=O)[C@H](CC(N)=O)NC(=O)[C@H](Cc2cccnc2)N(C)C(=O)[C@@H](Cc2cccc(C(N)=O)c2)NC(=O)CSC[C@@H](C(N)=O)NC(=O)[C@H](CCCCNC(=N)N)NC1=O [PDC_EphA2-00019429, df3CON-Me3Py-N-Cbg-Hgn-MeN-W1Me7Cl-Hcit-W1Me-T-Har-C-NH2] ({CH2CO}-[dPhe(3-CONH2)][NMe3Pal]N[Gly(cBu)][Aad](NH2)[NMeN][Trp(1-Me,7-Cl)][hCit][Trp(1-Me)]T[hArg]C-NH2; thioether N-12)
> 9.00 | C[C@@H](O)[C@@H]1NC(=O)[C@H](Cc2cn(C)c3ccccc23)NC(=O)[C@H](CCCCNC(=O)N2CCN(CC(=O)O)CC2)NC(=O)[C@H](Cc2cn(C)c3c(Cl)cccc23)NC(=O)[C@H](CC(N)=O)N(C)C(=O)[C@H](CCCC(N)=O)NC(=O)[C@H](C2CCC2)NC(=O)[C@H](CC(N)=O)NC(=O)[C@H](Cc2cccnc2)N(C)C(=O)[C@@H](Cc2cccc(C(N)=O)c2)NC(=O)CSC[C@@H](C(N)=O)NC(=O)[C@H](CCCCNC(=N)N)NC1=O [PDC_EphA2-00019430, df3CON-Me3Py-N-Cbg-Hgn-MeN-W1Me7Cl-KCOpipzaa-W1Me-T-Har-C-NH2] ({CH2CO}-[dPhe(3-CONH2)][NMe3Pal]N[Gly(cBu)][Aad](NH2)[NMeN][Trp(1-Me,7-Cl)]K([CO-Piperazinyl(4-CH2COOH)])[Trp(1-Me)]T[hArg]C-NH2; thioether N-12)
> 9.00 | C[C@@H](O)[C@@H]1NC(=O)[C@H](Cc2cn(C)c3ccccc23)NC(=O)[C@H](CCC(=O)NC[C@H](O)[C@@H](O)[C@H](O)[C@H](O)CO)NC(=O)[C@H](Cc2cn(C)c3c(Cl)cccc23)NC(=O)[C@H](Cc2ccccc2)N(C)C(=O)[C@H](CCCC(N)=O)NC(=O)[C@H](C2CCC2)NC(=O)[C@H](CC(N)=O)NC(=O)[C@H](Cc2ccccc2)N(C)C(=O)[C@@H](Cc2cccc(C(N)=O)c2)NC(=O)CSC[C@@H](C(N)=O)NC(=O)[C@H](CCCC(N)=O)NC1=O [PDC_EphA2-00019431, df3CON-MeF-N-Cbg-Hgn-MeF-W1Me7Cl-Qglucamine-W1Me-T-Hgn-C-NH2] ({CH2CO}-[dPhe(3-CONH2)][NMeF]N[Gly(cBu)][Aad](NH2)[NMeF][Trp(1-Me,7-Cl)]E(NH(1-deoxy-D-glucityl))[Trp(1-Me)]T[Aad](NH2)C-NH2; thioether N-12)
> 9.00 | C[C@@H](O)[C@@H]1NC(=O)[C@H](Cc2cn(C)c3ccccc23)NC(=O)[C@H](CCCCNC(=O)N2CCN(CC(=O)O)CC2)NC(=O)[C@H](Cc2cn(C)c3c(Cl)cccc23)NC(=O)[C@H](Cc2ccccc2)N(C)C(=O)[C@H](CCCC(N)=O)NC(=O)[C@H](C2CCC2)NC(=O)[C@H](CC(N)=O)NC(=O)[C@H](Cc2ccccc2)N(C)C(=O)[C@@H](Cc2cccc(C(N)=O)c2)NC(=O)CSC[C@@H](C(N)=O)NC(=O)[C@H](CCCC(N)=O)NC1=O [PDC_EphA2-00019432, df3CON-MeF-N-Cbg-Hgn-MeF-W1Me7Cl-KCOpipzaa-W1Me-T-Hgn-C-NH2] ({CH2CO}-[dPhe(3-CONH2)][NMeF]N[Gly(cBu)][Aad](NH2)[NMeF][Trp(1-Me,7-Cl)]K([CO-Piperazinyl(4-CH2COOH)])[Trp(1-Me)]T[Aad](NH2)C-NH2; thioether N-12)
> 9.00 | C[C@@H](O)[C@@H]1NC(=O)[C@H](Cc2cn(C)c3ccccc23)NC(=O)[C@H](CCC(=O)NC[C@H](O)[C@@H](O)[C@H](O)[C@H](O)CO)NC(=O)[C@H](Cc2cn(C)c3c(Cl)cccc23)NC(=O)[C@H](Cc2ccccc2)N(C)C(=O)[C@H](CCCC(N)=O)NC(=O)[C@H](C2CCC2)NC(=O)[C@H](CC(N)=O)NC(=O)[C@H](Cc2cccnc2)N(C)C(=O)[C@@H](Cc2cccc(C(N)=O)c2)NC(=O)CSC[C@@H](C(N)=O)NC(=O)[C@H](CCCC(N)=O)NC1=O [PDC_EphA2-00019433, df3CON-Me3Py-N-Cbg-Hgn-MeF-W1Me7Cl-Qglucamine-W1Me-T-Hgn-C-NH2] ({CH2CO}-[dPhe(3-CONH2)][NMe3Pal]N[Gly(cBu)][Aad](NH2)[NMeF][Trp(1-Me,7-Cl)]E(NH(1-deoxy-D-glucityl))[Trp(1-Me)]T[Aad](NH2)C-NH2; thioether N-12)
> 9.00 | C[C@@H](O)[C@@H]1NC(=O)[C@H](Cc2cn(C)c3ccccc23)NC(=O)[C@H](CCCCNC(=O)N2CCN(CC(=O)O)CC2)NC(=O)[C@H](Cc2cn(C)c3c(Cl)cccc23)NC(=O)[C@H](Cc2ccccc2)N(C)C(=O)[C@H](CCCC(N)=O)NC(=O)[C@H](C2CCC2)NC(=O)[C@H](CC(N)=O)NC(=O)[C@H](Cc2cccnc2)N(C)C(=O)[C@@H](Cc2cccc(C(N)=O)c2)NC(=O)CSC[C@@H](C(N)=O)NC(=O)[C@H](CCCC(N)=O)NC1=O [PDC_EphA2-00019434, df3CON-Me3Py-N-Cbg-Hgn-MeF-W1Me7Cl-KCOpipzaa-W1Me-T-Hgn-C-NH2] ({CH2CO}-[dPhe(3-CONH2)][NMe3Pal]N[Gly(cBu)][Aad](NH2)[NMeF][Trp(1-Me,7-Cl)]K([CO-Piperazinyl(4-CH2COOH)])[Trp(1-Me)]T[Aad](NH2)C-NH2; thioether N-12)
> 9.00 | C[C@@H](O)[C@@H]1NC(=O)[C@H](Cc2cn(C)c3ccccc23)NC(=O)[C@H](CCC(=O)NC[C@H](O)[C@@H](O)[C@H](O)[C@H](O)CO)NC(=O)[C@H](Cc2cn(C)c3c(Cl)cccc23)NC(=O)[C@H](Cc2cccnc2)N(C)C(=O)[C@H](CCCC(N)=O)NC(=O)[C@H](C2CCC2)NC(=O)[C@H](CC(N)=O)NC(=O)[C@H](Cc2ccccc2)N(C)C(=O)[C@@H](Cc2cccc(C(N)=O)c2)NC(=O)CSC[C@@H](C(N)=O)NC(=O)[C@H](CCCC(N)=O)NC1=O [PDC_EphA2-00019435, df3CON-MeF-N-Cbg-Hgn-Me3Py-W1Me7Cl-Qglucamine-W1Me-T-Hgn-C-NH2] ({CH2CO}-[dPhe(3-CONH2)][NMeF]N[Gly(cBu)][Aad](NH2)[NMe3Pal][Trp(1-Me,7-Cl)]E(NH(1-deoxy-D-glucityl))[Trp(1-Me)]T[Aad](NH2)C-NH2; thioether N-12)
> 9.00 | C[C@@H](O)[C@@H]1NC(=O)[C@H](Cc2cn(C)c3ccccc23)NC(=O)[C@H](CCCCNC(=O)N2CCN(CC(=O)O)CC2)NC(=O)[C@H](Cc2cn(C)c3c(Cl)cccc23)NC(=O)[C@H](Cc2cccnc2)N(C)C(=O)[C@H](CCCC(N)=O)NC(=O)[C@H](C2CCC2)NC(=O)[C@H](CC(N)=O)NC(=O)[C@H](Cc2ccccc2)N(C)C(=O)[C@@H](Cc2cccc(C(N)=O)c2)NC(=O)CSC[C@@H](C(N)=O)NC(=O)[C@H](CCCC(N)=O)NC1=O [PDC_EphA2-00019436, df3CON-MeF-N-Cbg-Hgn-Me3Py-W1Me7Cl-KCOpipzaa-W1Me-T-Hgn-C-NH2] ({CH2CO}-[dPhe(3-CONH2)][NMeF]N[Gly(cBu)][Aad](NH2)[NMe3Pal][Trp(1-Me,7-Cl)]K([CO-Piperazinyl(4-CH2COOH)])[Trp(1-Me)]T[Aad](NH2)C-NH2; thioether N-12)
> 9.00 | C[C@@H](O)[C@@H]1NC(=O)[C@H](Cc2cn(C)c3ccccc23)NC(=O)[C@H](CCC(=O)NC[C@H](O)[C@@H](O)[C@H](O)[C@H](O)CO)NC(=O)[C@H](Cc2cn(C)c3c(Cl)cccc23)NC(=O)[C@H](CCC(=O)O)N(C)C(=O)[C@H](CCCC(N)=O)NC(=O)[C@H](C2CCC2)NC(=O)[C@H](CC(N)=O)NC(=O)[C@H](Cc2cccnc2)N(C)C(=O)[C@@H](Cc2cccc(C(N)=O)c2)NC(=O)CSC[C@@H](C(N)=O)NC(=O)[C@H](CCCC(N)=O)NC1=O [PDC_EphA2-00019439, df3CON-Me3Py-N-Cbg-Hgn-MeE-W1Me7Cl-Qglucamine-W1Me-T-Hgn-C-NH2] ({CH2CO}-[dPhe(3-CONH2)][NMe3Pal]N[Gly(cBu)][Aad](NH2)[NMeE][Trp(1-Me,7-Cl)]E(NH(1-deoxy-D-glucityl))[Trp(1-Me)]T[Aad](NH2)C-NH2; thioether N-12)
